Here are results for eleven compounds from patent publication US6350759B1, “Dihydro- and tetrahydro-quinoline compounds” (Adir et Compagnie, priority 1998, dated 2002).

Data set [1] deals with Wistar rat. As to the kind of experiment: Neuroprotection in transient and global cerebral ischaemia in the Wistar rat. In kind it is in vivo. The following applies: administration 30 minutes before the start of the ischaemia; count 7 days after. The method, then: This animal model (Pulsinelli and Brierley, Stroke 10, 267-272, 1979), is commonly used for the detection of central anti-ischaemic agents (Buchan et al., Neurosci. Lett., 132(2), 255-258, 1991).
Under pentobarbital anaesthesia, the vertebral arteries of male Wistar rats (280-320 g, Charles River) are permanently occluded by electrocoagulation and carotid ligatures are placed around each common carotid. 24 hours later, ischaemia is brought about for […] by clamping the carotids with the carotid ligatures. This ischaemic episode causes delayed neurone death at the level of the pyramidal cells of the hippocampus. Neurone death is measured by a neurone count on sections of brain (7 μm, staining: hematoxylin-eosin) of rats sacrificed 7 days after the ischaemic episode. The results are expressed as a percentage of viable hippocampal neurones compared with the total hippocampal neurone population. […] That is true especially of the compound of Example 1, which, on administration 30 minutes before the start of the ischaemia, induces a reduction by a factor of 2.7.

Data set [2] concerns Wistar rat. The experiment in a line: Delayed hippocampal neurodegeneracy induced by kainic acid in the Wistar rat. The settings on record: 150 mg/kg i.p. 30 minutes before kainic acid 12 mg/kg s.c.; count 7 days later. In kind it is in vivo. Here is the method:
This method is frequently used as a model of temporal epilepsy in humans (Ben-Ari, Neurosci., 14, 375-403, 1985).
Male Wistar rats (180-220 g, CERJ) are given kainic acid (12 mg/kg) by the subcutaneous route. The animals are sacrificed by decapitation 7 days later. The brains are removed and then cut, in the frozen state, into frontal sections of 7 μm, which are stained (hematoxylin-eosin). Hippocampal neurone death is assessed by a neurone count at the level of the CA3 layer of the hippocampus. The results are expressed as a percentage of viable neurones in the CA3 layer compared with the total neurone population.

The test system of another data set is C57BL/6 mouse. As to the kind of experiment: Antagonism of dopaminergic striatonigral dysfunctions induced by methamphetamine in the C57BL/6 mouse. The data set is classed as in vivo. The following applies: dose 2×150 mg/kg i.p. The method, then: Male mice (C57BL/6 20-25 g) are given four injections of d-methamphetamine (5 mg/kg base, i.p.) at intervals of 2 hours (Sonsalla and Heikkila, Prog. Neuro-Psychopharmacolo. & Biol. Psychiat., 12, 345-354, 1988) and the anti-oxidant being tested is administered (i.p.) 30 minutes before the first and third injections of d-methamphetamine (Yamamoto and Zhu, J. Pharmacol. Exp. Ther. 287, 107-114, 1988). The rectal temperature is monitored throughout the duration of the experiment. The animals are sacrificed by decapitation 72 hours after the last injection of d-methamphetamine. The brains are rapidly extracted, and the striata are removed, frozen in liquid nitrogen and weighed. The striata are homogenised by sonication in 20 volumes of 0.1N HClO4, and the homogenate is centrifuged at 15000 g for 20 minutes at 4° C. The supernatants are collected for assaying the striata tissue levels of dopamine by means of HPLC coupled with coulometric detection (Bonhomme et al., Brain Res., 675, 215-233, 1995). The results are expressed as μg of dopamine/g of tissue. […] That is true especially of the compound of Example 1 administered in a dose of 2×150 mg/kg i.p.

By melting point is commonly meant the temperature of the solid-liquid transition. Regarding `CCOc1c(C)c(C)c2c(c1C)CCC1(CCCCC1)N2.Cl`, the melting point was 192 to 198 °C (dec.). On the same count and under the same terms, next, `C1=CC2(CCCCC2)Nc2ccc(Oc3ccccc3)cc21.Cl`: 176 °C. `CC(C)(C)Oc1ccc2c(c1)C=CC1(CCCCC1)N2.Cl`: the melting point was found to be 132 °C. In the case of `CCOc1ccc2c(c1)C=CC1(CCCCC1)N2.Cl` [Example 1, 6-Ethoxy-1,2-dihydroquinoline-2-spirocyclohexane hydrochloride], in the data set on Wistar rat [1], the “reduction of hippocampal neurone death, factor” value is on record as 2.7. Further, in the data set on Wistar rat [2], the “reduction in neurone death (CA3 layer), factor” value is listed as 3. Moreover, in the data set with C57BL/6 mouse, the “effect on dopaminergic deficit induced by methamphetamine (striatal dopamine)” value is on record as “oppose the dopaminergic deficit”. With `CCOc1c(C(C)C)cc2c(c1C(C)C)C=CC1(CCCCC1)N2.Cl`, the melting point is 166 to 169 °C (dec.). Compound `CCOc1c(C(C)C)cc2c(c1C(C)C)CCC(C)(C)N2.Cl` yielded a melting point of 227 to 230 °C.

Turning to `CCOc1cccc2c1NC1(C=C2)CCCCC1.Cl`, the melting point is 154 to 155 °C.

On to `CCOc1c(C)c(C)c2c(c1C)C=CC1(CCCCC1)N2.Cl`, for which the melting point lay within 158 to 161 °C.

`CCOc1c(C)cc2c(c1C)C=CC1(CCCCC1)N2.Cl` displayed a melting point of 175 to 180 °C.

`COc1ccc2c(c1)C=CC1(CCCCC1)N2.Cl` yielded a melting point of 191 °C. As to `CC(C)(C)C(=O)Oc1ccc2c(c1)C=CC1(CCCCC1)N2.Cl`, the melting point is 180 °C.
